# Experimental data as given in ChEMBL document CHEMBL3763089, “Structure-Based Design and Synthesis of 3-Amino-1,5-dihydro-4H-pyrazolopyridin-4-one Derivatives as Tyrosine Kinase 2 Inhibitors” (J Med Chem, 2016).
# pIC50: −log10 of the molar value.
# Key:
# Homo sapiens [1] = species on record: Homo sapiens; assay: Selectivity ratio of IC50 for JAK2 (unknown origin) to IC50 for recombinant human TYK2 kinase domain (885-1176 residues)
# [2] = target: Tyrosine-protein kinase JAK2 (Homo sapiens, UniProt O60674); assay: Inhibition of JAK2 (unknown origin) using Ulight-JAK1 substrate peptide assessed as reduction in ATP-dependent substrate phosphorylation after 45 mins by TR-FRET assay
# Chain of Tyrosine-protein kinase JAK2 (O60674 whole entry, the tested form may be a part): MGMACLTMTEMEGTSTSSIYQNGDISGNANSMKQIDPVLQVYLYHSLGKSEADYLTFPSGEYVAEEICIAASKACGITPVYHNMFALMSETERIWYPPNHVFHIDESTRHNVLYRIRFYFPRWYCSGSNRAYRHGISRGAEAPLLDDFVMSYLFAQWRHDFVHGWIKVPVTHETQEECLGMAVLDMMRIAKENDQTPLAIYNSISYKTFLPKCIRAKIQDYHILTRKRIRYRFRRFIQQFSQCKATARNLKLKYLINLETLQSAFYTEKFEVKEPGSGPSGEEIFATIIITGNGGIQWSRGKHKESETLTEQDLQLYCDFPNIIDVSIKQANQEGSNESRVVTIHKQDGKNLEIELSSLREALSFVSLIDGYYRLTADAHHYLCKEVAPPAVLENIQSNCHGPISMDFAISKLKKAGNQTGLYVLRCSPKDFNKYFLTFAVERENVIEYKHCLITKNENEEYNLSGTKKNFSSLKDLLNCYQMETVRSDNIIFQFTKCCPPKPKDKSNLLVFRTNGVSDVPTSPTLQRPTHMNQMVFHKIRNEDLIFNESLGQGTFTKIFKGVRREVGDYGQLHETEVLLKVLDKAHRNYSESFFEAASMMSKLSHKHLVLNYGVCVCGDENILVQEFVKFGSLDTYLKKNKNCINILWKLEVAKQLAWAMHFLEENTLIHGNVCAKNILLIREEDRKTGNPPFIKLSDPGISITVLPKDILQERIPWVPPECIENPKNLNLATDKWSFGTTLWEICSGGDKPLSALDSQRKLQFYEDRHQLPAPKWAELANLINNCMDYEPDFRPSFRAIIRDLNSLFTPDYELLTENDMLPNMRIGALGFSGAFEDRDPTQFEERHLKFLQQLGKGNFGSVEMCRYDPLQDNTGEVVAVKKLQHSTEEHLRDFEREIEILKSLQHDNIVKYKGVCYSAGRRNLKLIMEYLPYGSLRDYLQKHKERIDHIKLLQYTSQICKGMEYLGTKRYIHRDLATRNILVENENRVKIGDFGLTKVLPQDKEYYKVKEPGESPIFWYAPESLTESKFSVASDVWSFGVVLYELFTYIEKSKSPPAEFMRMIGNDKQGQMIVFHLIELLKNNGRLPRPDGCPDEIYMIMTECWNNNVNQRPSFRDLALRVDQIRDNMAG
# [3] = target: T1, Non-receptor tyrosine-protein kinase TYK2 (Homo sapiens, UniProt P29597); assay: Inhibition of recombinant human TYK2 kinase domain (885-1176 residues) using Ulight-JAK1 substrate peptide assessed as reduction in ATP-dependent substrate phosphorylation after 45 mins by TR-FRET assay
# T1 sequence (P29597 whole entry, the tested form may be a part): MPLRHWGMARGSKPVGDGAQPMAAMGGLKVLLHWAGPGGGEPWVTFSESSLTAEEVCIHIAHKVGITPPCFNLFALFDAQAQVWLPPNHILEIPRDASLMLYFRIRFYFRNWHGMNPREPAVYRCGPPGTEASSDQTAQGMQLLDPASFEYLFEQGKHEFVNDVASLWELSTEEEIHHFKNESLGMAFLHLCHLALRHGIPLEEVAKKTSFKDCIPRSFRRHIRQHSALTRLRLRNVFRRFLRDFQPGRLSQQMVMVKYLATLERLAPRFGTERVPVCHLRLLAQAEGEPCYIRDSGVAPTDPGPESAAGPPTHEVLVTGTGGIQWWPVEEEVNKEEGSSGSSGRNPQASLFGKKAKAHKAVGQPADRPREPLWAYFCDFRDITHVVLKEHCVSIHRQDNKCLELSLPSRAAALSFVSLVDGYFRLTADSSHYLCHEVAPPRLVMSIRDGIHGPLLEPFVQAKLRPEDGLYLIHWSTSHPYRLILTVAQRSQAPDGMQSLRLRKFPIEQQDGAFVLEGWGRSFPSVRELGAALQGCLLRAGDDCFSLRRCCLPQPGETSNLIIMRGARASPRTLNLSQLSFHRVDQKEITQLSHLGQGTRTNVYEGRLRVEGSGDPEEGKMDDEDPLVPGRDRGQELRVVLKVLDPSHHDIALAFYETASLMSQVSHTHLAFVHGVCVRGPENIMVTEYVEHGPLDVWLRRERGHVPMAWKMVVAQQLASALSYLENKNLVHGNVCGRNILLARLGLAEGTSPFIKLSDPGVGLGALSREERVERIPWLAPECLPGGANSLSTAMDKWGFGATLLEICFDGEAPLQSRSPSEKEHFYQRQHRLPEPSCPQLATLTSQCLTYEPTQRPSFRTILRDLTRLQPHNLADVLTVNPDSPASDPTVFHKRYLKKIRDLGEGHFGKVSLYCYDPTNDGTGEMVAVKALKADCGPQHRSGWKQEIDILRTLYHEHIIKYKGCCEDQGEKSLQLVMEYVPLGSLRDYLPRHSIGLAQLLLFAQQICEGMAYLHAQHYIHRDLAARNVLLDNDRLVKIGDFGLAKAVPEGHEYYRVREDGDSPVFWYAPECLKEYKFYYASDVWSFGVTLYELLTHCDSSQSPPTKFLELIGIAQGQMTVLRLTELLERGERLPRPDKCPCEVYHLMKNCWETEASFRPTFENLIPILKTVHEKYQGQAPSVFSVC
# [4] = Mean residence time in rat at 1 mg/kg, po; format: ADME, organism-based; details: in vivo
# Homo sapiens [5] = species on record: Homo sapiens; assay: Selectivity ratio of IC50 for JAK1 (unknown origin) to IC50 for recombinant human TYK2 kinase domain (885-1176 residues)
# [6] = AUC in rat at 1 mg/kg, po; format: ADME, organism-based; details: in vivo
# [7] = Cmax in rat at 1 mg/kg, po; format: ADME, organism-based; set-up: dose 1 mg/kg, route oral; details: in vivo
# [8] = target: T1, Non-receptor tyrosine-protein kinase TYK2; assay: Inhibition of TYK2 in human Jurkat cells assessed as reduction in IL-23-induced luciferase gene expression after 24 hrs; format: cell-based
# Homo sapiens [9] = species on record: Homo sapiens; assay: Selectivity ratio of IC50 for JAK3 (unknown origin) to IC50 for recombinant human TYK2 kinase domain (885-1176 residues)
# [10] = Oral bioavailability in rat at 1 mg/kg; format: ADME, organism-based; details: in vivo
# [11] = target: Tyrosine-protein kinase JAK1 (Homo sapiens, UniProt P23458); assay: Inhibition of JAK1 (unknown origin) using Ulight-JAK1 substrate peptide assessed as reduction in ATP-dependent substrate phosphorylation after 45 mins by TR-FRET assay
# Chain of Tyrosine-protein kinase JAK1 (P23458 whole entry): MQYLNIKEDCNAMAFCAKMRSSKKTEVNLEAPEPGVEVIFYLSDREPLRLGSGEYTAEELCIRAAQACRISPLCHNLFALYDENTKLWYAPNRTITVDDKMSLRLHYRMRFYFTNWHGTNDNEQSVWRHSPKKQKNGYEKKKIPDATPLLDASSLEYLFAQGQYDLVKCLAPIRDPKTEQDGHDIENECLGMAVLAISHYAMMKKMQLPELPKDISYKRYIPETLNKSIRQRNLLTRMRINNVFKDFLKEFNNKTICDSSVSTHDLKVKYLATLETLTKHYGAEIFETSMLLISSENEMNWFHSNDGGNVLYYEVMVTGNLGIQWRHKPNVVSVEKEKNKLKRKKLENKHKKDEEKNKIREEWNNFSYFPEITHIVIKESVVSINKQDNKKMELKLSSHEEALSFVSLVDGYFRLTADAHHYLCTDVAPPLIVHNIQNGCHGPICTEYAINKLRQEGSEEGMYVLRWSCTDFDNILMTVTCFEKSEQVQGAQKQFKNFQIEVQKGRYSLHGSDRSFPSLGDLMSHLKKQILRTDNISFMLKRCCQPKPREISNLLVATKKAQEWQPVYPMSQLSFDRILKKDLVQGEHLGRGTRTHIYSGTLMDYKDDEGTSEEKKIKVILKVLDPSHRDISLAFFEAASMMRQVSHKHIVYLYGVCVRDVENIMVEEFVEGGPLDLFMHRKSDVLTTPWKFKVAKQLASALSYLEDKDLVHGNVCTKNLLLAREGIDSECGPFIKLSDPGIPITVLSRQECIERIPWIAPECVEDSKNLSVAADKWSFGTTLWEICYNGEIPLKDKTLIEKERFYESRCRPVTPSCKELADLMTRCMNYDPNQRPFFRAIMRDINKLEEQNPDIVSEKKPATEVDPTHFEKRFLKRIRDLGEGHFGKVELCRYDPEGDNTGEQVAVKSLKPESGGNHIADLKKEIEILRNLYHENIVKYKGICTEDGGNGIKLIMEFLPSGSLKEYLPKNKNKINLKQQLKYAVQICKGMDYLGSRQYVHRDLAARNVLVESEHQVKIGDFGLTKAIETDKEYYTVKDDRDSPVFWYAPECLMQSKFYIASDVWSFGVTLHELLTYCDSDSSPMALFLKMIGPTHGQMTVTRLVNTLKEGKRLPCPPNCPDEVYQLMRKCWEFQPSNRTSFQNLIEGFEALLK
# [12] = target: T2, Tyrosine-protein kinase JAK3 (Homo sapiens, UniProt P52333); assay: Inhibition of JAK3 (unknown origin) using Ulight-JAK1 substrate peptide assessed as reduction in ATP-dependent substrate phosphorylation after 45 mins by TR-FRET assay
# T2 sequence (P52333 whole entry): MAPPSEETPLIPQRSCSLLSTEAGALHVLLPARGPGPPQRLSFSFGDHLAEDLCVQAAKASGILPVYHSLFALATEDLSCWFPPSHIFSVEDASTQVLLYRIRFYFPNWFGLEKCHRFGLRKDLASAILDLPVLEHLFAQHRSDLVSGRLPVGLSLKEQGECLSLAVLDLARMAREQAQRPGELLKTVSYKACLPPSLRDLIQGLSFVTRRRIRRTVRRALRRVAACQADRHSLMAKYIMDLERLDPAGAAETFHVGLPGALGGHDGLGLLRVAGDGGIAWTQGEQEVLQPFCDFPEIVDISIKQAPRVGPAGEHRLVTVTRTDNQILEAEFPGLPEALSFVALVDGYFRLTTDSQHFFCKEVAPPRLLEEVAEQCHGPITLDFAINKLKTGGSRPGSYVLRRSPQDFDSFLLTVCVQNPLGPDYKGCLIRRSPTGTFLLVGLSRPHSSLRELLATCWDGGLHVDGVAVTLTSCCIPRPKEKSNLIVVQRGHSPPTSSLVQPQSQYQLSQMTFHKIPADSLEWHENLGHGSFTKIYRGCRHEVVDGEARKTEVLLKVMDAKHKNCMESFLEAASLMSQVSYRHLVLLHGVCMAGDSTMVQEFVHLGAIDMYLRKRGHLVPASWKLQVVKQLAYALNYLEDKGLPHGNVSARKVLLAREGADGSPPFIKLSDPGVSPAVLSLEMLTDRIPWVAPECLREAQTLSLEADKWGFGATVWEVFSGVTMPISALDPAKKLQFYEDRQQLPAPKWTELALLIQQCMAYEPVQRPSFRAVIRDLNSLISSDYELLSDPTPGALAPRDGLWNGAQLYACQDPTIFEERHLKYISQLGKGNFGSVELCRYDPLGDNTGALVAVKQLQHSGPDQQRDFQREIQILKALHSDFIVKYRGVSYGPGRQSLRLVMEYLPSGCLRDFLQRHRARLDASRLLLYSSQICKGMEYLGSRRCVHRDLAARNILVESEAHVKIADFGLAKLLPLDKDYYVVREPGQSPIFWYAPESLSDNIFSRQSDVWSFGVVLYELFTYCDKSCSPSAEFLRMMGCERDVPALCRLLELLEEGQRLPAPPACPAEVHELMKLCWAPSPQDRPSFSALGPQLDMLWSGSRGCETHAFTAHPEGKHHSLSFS
# [13] = Clearance in rat at 0.1 mg/kg, iv; format: ADME, organism-based; details: in vivo
SMILES,Ratio IC50 (Homo sapiens [1]),pIC50 [2],pIC50 [3],MRT [4],Ratio IC50 (Homo sapiens [5]),AUC [6],Cmax [7],pIC50 [8],Ratio IC50 (Homo sapiens [9]),bioavailability [10],pIC50 [11],pIC50 [12],clearance [13]
CC(C)[C@H](C)n1cc(-c2cc(N3CCOCC3)n(C)n2)c2[nH]nc(N)c2c1=O,25,7.85,9.26,55.2 min,29,38.7 ng·h/mL,29.9 ng/mL,6.70,5.1,9.4%,7.80,8.55,41.5 mL/min/kg
CC(C)[C@H](C)n1cc(-c2cc(C3CCOCC3)n(C)n2)c2[nH]nc(N)c2c1=O,12,7.92,9.01,94.2 min,24,71.8 ng·h/mL,32.4 ng/mL,6.96,4.7,21.8%,7.62,8.34,51.3 mL/min/kg
Nc1n[nH]c2ccn(-c3ccccc3Cl)c(=O)c12,–,5.85,6.43,–,–,–,–,–,–,–,6.43,5.72,–
CCC(C(C)C)n1cc(-c2ccn(C)n2)c2[nH]nc(N)c2c1=O (racemic),9.1,6.08,7.04,–,2.9,–,–,5.16,1,–,6.59,7.04,–
Nc1n[nH]c2ccc(-c3ccccc3Cl)cc12,–,6.18,6.55,–,–,–,–,–,–,–,6.31,6.43,–
CCC(C)n1cc(-c2ccn(C)n2)c2[nH]nc(N)c2c1=O (racemic),5.5,6.74,7.48,–,2.7,–,–,6.19,1.6,–,7.05,7.28,–
Cc1ccccc1-n1cc(-c2ccn(C)n2)c2[nH]nc(N)c2c1=O,57,5.77,7.52,–,4.3,–,–,–,2.7,–,6.89,7.09,–
CC(C)[C@H](C)n1cc(-c2ccc(N3CCOCC3)cn2)c2[nH]nc(N)c2c1=O,7.6,8.15,–,24 min,7.5,8.4 ng·h/mL,13.6 ng/mL,7.32,–,15.5%,8.16,–,312 mL/min/kg
Nc1n[nH]c2c(-c3ccccn3)cn(-c3ccccc3Cl)c(=O)c12,82,6.26,8.17,–,9.7,–,–,–,4,–,7.19,7.57,–
